Literature values in US20120225789A1, “DNA REPAIR OR BRCA1-LIKE GENE SIGNATURE” (Baylor College of Medicine, priority 2009, published 2012).

Test system: mammary tumors in which BRCA1 protein has been lost
Conditions: mice spontaneously developing BRCA1-lost mammary tumors

**Q.** For COc1cccc2c1C(=O)c1c(O)c3c(c(O)c1C2=O)C[C@@](O)(C(=O)CO)C[C@@H]3O[C@H]1C[C@H](N)[C@H](O)[C@H](C)O1 [doxorubicin], which “response of mice to chemotherapy” value is on record?
**A.** Its value is “highly sensitive”.

**Q.** For N.N.[Cl][Pt][Cl] [cisplatin], which “response of mice to chemotherapy” value is on record?
**A.** Its value is “highly sensitive”.

**Q.** For CC(=O)O[C@@]12CO[C@@H]1C[C@H](O)[C@@]1(C)C(=O)[C@H](O)C3=C(C)[C@@H](OC(=O)[C@H](O)[C@@H](NC(=O)OC(C)(C)C)c4ccccc4)C[C@@](O)([C@@H](OC(=O)c4ccccc4)[C@H]21)C3(C)C [docetaxel], which “response of mice to chemotherapy” value is on record?
**A.** Its value is “resistance”.
